Experimental data published in patent US20220062199A1, “PH[…] ACTIVATOR COMPOUNDS, COMPOSITIONS, METHODS AND USES THEREOF” (SOCIETE DES PRODUITS NESTLE S.A., priority 2019, published 2022).

Legend:
[1] = test system: phosphorylation of the AMPK substrate, acetyl-CoA carboxylase (ACC), in U2OS Flp-In T-REx mammalian cells; experiment: pACC HTRF assay: phosphorylation of the AMPK substrate ACC in U2OS Flp-In T-REx cells; type: cell-based; conditions: varying concentrations, 1 h, media lacking FBS, FIG. 2
Protocol: U2OS Flp-In T-REx cells were first seeded at 50 K in a 96-well plate and left overnight at 37 C in DMEM GlutaMAX (Thermo Fisher Scientific) supplemented with 10% (vol/vol) FBS and 100 U/ml penicillin G, and 100 μg/ml streptomycin. Cells were treated for 1 h with varying concentrations of Lusianthridin in media lacking FBS and then cells were lysed in 50 μl of Cisbio lysis buffer #1 supplemented with blocking solution as per the manufacturer's protocol (Cisbio). Cells were lysed for 30 mins at room temperature before 16 μl of lysate was incubated with 4 μl of the HTRF antibodies (1:40 dilution of the acceptor and donor (p)ACC antibodies, as per the manufacturers protocol). Lysates were incubated overnight with the antibodies before 665 nm/620 nm ratio was determined using a MolecularDevices i3 plate reader (with a HTRF cartridge add-on).

AMPKα2β1γ1 = target: T1, AMPKα2β1γ1 (Homo sapiens, UniProt P54619+P54646+Q9Y478); experiment: Activation of bacterially-expressed AMPKα2β1γ1 in vitro (HTRF-KinEASE Cisbio assay); type: biochemical; conditions: CaMKKβ-phosphorylated purified AMPK, varying concentrations, 30 mins, FIG. 1
T1 construct: His; made in house; host or cells: bacteria
T1 sequence (P54646 whole entry): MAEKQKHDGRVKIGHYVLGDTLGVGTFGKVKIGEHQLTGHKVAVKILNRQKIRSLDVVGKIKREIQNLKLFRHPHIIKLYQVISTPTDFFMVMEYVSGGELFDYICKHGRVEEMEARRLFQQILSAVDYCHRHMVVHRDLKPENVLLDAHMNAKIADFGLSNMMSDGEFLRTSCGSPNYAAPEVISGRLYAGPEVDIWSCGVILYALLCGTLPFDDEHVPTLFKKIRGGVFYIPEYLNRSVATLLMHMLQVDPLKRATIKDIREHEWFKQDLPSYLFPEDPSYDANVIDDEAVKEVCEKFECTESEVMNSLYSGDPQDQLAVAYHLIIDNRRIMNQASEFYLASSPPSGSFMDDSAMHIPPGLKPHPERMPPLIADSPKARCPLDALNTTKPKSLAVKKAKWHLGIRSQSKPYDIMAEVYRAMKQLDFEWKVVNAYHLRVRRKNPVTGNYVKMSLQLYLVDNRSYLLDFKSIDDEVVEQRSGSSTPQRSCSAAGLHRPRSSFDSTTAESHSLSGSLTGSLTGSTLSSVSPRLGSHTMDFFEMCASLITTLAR
T1 sequence (Q9Y478 whole entry): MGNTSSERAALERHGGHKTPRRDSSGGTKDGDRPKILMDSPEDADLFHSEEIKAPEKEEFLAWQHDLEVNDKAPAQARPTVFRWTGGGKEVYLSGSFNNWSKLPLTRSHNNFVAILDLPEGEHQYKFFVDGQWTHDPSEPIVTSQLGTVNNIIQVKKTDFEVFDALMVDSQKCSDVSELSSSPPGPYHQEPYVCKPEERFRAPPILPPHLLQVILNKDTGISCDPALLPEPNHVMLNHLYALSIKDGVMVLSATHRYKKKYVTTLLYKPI
T1 sequence (P54619 whole entry): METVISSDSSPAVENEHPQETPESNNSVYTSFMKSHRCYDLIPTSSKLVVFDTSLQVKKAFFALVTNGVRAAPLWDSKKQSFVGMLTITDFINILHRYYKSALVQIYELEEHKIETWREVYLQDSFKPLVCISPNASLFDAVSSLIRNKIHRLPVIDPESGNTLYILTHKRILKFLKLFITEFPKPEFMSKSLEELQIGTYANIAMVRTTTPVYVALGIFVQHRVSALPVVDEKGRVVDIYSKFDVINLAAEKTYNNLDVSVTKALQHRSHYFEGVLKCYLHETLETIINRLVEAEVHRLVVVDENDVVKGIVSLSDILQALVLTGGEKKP
Protocol: The AMPK heterotrimers were expressed in bacteria and purified through the His-α subunit by nickel purification before further purification through gel filtration. After being phosphorylated by incubation with CaMKKβ, AMPK complexes were further purified with a final gel filtration purification step. Phosphorylated purified AMPK was incubated with varying concentrations of Compound 1 or 2 for 30 mins using substrate and reagents from the HTRF-KinEASE Cisbio assay kit (STK S1 Kit). Phosphorylation of the substrate was measured by incubating with donor and acceptor antibodies for 2 h at room temperature as per the manufacturer's protocol (Coulerie et al., (2016) PMID: 27792327) and phosphorylated peptide detected by performing HTRF. The 665 nm/620 nm ratio was determined and plotted vs the log of the concentration of ligand.

SMILES | phosphorylation of the AMPK substrate ACC (665 nm/620 nm HTRF ratio) [1] | activation of AMPK complexes in vitro (substrate phosphorylation, 665 nm/620 nm HTRF ratio vs log concentration) (AMPKα2β1γ1)
COc1cc(O)c2c(ccc3cccc(O)c32)c1 [Compound 2, 2-Methoxyphenanthrene-4,5-diol] | increase the phosphorylation of the AMPK substrate, ACC, in a dose-dependent manner | directly activate AMPK complexes in vitro
COc1cc(O)c2c(ccc3cc(O)ccc32)c1 [Compound 1, 7-Methoxyphenanthrene-2,5-diol] | increase the phosphorylation of the AMPK substrate, ACC, in a dose-dependent manner | directly activate AMPK complexes in vitro
